Test results reported in patent publication US20220088016A1, “CANCER TREATMENT USING MULTI-TARGETED KINASE INHIBITOR IN COMBINATION OF PROTEIN KINASE BIOMARKERS” (ZHEJIANG CROWNMAB BIOTECH CO. LTD., priority 2019, published 2022).

Experiments:
[1] = biological target: ABL1 (F317L)-phosphorylated (Homo sapiens, UniProt P00519, F317L); experiment: Kinase profiling; type: binding; conditions: read-out: % Ctrl @ 1000 nM
[2] = biological target: ALK (L1196M) (Homo sapiens, UniProt Q9UM73, L1196M); experiment: Kinase profiling; type: binding; conditions: read-out: % Ctrl @ 1000 nM
[3] = biological target: CAMK2D (Homo sapiens, UniProt Q13557); experiment: Kinase profiling; type: binding; conditions: read-out: % Ctrl @ 1000 nM
[4] = biological target: CAMK2G (Homo sapiens, UniProt Q13555); experiment: Kinase profiling; type: binding; conditions: read-out: % Ctrl @ 1000 nM
[5] = biological target: CDK3 (Homo sapiens, UniProt Q00526); experiment: Kinase profiling; type: binding; conditions: read-out: % Ctrl @ 1000 nM
[6] = biological target: CHEK1 (Homo sapiens, UniProt O14757); experiment: Kinase profiling; type: binding; conditions: read-out: % Ctrl @ 1000 nM
[7] = biological target: CLK1 (Homo sapiens, UniProt P49759); experiment: Kinase profiling; type: binding; conditions: read-out: % Ctrl @ 1000 nM
[8] = biological target: DAPK2 (Homo sapiens, UniProt Q9UIK4); experiment: Kinase profiling; type: binding; conditions: read-out: % Ctrl @ 1000 nM
[9] = biological target: DLK (Homo sapiens, UniProt Q12852); experiment: Kinase profiling; type: binding; conditions: read-out: % Ctrl @ 1000 nM
DLK, sequence (Q12852 whole entry): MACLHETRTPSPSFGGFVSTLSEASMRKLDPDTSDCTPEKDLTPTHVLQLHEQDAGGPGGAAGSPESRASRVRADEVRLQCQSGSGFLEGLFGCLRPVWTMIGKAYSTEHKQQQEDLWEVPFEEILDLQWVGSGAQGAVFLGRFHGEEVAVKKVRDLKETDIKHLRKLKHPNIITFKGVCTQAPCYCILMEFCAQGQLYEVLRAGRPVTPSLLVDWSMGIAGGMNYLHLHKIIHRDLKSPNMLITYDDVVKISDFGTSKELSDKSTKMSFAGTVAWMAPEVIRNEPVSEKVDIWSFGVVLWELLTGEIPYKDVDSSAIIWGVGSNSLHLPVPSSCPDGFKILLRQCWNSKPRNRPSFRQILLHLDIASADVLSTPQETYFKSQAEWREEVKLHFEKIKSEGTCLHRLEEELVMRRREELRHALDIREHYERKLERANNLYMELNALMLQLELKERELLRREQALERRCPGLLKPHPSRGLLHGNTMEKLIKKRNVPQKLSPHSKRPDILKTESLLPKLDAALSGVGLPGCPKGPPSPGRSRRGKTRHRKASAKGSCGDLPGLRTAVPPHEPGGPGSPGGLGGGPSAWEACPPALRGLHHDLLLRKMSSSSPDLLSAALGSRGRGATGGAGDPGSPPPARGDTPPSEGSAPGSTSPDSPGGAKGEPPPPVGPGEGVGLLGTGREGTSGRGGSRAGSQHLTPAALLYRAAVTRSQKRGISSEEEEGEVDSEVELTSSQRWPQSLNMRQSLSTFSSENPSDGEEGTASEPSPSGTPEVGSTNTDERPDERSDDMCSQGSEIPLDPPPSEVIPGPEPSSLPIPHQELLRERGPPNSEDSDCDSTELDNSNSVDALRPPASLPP

[10] = biological target: ERK1 (Homo sapiens, UniProt P27361); experiment: Kinase profiling; type: binding; conditions: read-out: % Ctrl @ 1000 nM
ERK1, sequence (P27361 whole entry): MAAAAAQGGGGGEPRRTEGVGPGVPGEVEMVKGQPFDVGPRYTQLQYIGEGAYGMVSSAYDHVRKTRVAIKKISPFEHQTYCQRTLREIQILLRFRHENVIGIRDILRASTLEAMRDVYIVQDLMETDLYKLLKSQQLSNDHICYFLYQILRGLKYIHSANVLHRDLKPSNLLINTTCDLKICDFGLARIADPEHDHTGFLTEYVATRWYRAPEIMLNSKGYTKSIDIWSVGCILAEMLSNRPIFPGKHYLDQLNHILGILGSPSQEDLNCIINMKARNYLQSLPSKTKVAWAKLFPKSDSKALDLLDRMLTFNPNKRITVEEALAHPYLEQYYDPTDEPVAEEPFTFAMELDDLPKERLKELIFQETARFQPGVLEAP

[11] = biological target: FGFR3 (Homo sapiens, UniProt P22607); experiment: Kinase profiling; type: binding; conditions: read-out: % Ctrl @ 1000 nM
FGFR3, sequence (P22607 23-806): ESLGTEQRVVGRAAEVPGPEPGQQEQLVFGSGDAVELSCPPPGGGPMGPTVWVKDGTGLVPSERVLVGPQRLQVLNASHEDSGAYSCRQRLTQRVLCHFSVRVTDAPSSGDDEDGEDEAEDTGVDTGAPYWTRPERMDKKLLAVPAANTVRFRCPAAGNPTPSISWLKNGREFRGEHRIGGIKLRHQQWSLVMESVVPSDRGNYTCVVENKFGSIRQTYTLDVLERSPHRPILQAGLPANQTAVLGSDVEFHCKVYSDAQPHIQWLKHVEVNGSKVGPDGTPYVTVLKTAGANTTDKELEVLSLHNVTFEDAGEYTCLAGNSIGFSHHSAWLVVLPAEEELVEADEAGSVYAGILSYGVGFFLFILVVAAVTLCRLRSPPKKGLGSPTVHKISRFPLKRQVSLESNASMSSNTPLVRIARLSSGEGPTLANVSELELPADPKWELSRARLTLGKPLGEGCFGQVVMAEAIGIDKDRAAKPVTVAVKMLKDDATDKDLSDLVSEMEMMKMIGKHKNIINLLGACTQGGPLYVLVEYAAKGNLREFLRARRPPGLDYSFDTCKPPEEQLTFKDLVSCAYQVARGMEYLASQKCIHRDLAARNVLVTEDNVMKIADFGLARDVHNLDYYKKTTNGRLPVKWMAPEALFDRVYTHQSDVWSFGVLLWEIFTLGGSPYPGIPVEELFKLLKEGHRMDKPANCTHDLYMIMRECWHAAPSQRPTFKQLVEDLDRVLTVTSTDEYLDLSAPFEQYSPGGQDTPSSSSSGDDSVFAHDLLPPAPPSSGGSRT

[12] = biological target: FLT3-autoinhibited (Homo sapiens, UniProt P36888); experiment: Kinase profiling; type: binding; conditions: read-out: % Ctrl @ 1000 nM
[13] = biological target: FYN (Homo sapiens, UniProt P06241); experiment: Kinase profiling; type: binding; conditions: read-out: % Ctrl @ 1000 nM
[14] = biological target: ICK (Homo sapiens, UniProt Q9UPZ9); experiment: Kinase profiling; type: binding; conditions: read-out: % Ctrl @ 1000 nM
[15] = biological target: KIT (L576P) (Homo sapiens, UniProt P10721, L576P); experiment: Kinase profiling; type: binding; conditions: read-out: % Ctrl @ 1000 nM
[16] = biological target: KIT (V559D, V654A) (Homo sapiens, UniProt P10721, V559D/V654A); experiment: Kinase profiling; type: binding; conditions: read-out: % Ctrl @ 1000 nM
[17] = biological target: T1, MRCKB (Homo sapiens, UniProt Q9Y5S2); experiment: Kinase profiling; type: binding; conditions: read-out: % Ctrl @ 1000 nM
T1 construct: T7 phage fusion (stated for most kinases of the panel only); made in house; host or cells: T7 phage in E. coli (BL21-derived) or HEK-293 cells

[18] = biological target: T2, MYLK (Homo sapiens, UniProt Q15746); experiment: Kinase profiling; type: binding; conditions: read-out: % Ctrl @ 1000 nM
T2 construct: T7 phage fusion (said for most assays); made in house

[19] = biological target: PAK6 (Homo sapiens, UniProt Q9NQU5); experiment: Kinase profiling; type: binding; conditions: read-out: % Ctrl @ 1000 nM
[20] = biological target: PHKG2 (Homo sapiens, UniProt P15735); experiment: Kinase profiling; type: binding; conditions: read-out: % Ctrl @ 1000 nM
[21] = biological target: PIK3CD (Homo sapiens, UniProt O00329); experiment: Kinase profiling; type: binding; conditions: read-out: % Ctrl @ 1000 nM
[22] = biological target: PLK3 (Homo sapiens, UniProt Q9H4B4); experiment: Kinase profiling; type: binding; conditions: read-out: % Ctrl @ 1000 nM
PLK3, sequence (Q9H4B4 whole entry): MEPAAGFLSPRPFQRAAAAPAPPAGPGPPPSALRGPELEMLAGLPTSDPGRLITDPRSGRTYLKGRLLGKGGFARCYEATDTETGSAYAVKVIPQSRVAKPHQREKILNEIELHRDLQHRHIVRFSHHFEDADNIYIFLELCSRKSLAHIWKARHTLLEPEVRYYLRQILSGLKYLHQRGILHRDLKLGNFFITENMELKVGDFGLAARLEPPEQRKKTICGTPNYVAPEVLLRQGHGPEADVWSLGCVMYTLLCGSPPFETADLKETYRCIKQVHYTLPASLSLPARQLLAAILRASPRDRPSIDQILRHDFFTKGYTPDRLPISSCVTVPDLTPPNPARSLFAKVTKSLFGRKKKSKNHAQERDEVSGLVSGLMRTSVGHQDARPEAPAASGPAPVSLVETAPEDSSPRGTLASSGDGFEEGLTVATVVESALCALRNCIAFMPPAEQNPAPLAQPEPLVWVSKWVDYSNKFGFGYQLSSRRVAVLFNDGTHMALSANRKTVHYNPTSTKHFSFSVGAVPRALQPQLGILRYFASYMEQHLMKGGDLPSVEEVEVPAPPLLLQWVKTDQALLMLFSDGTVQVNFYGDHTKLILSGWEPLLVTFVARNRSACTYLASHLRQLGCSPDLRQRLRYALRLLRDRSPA

[23] = biological target: PRKCD (Homo sapiens, UniProt Q05655); experiment: Kinase profiling; type: binding; conditions: read-out: % Ctrl @ 1000 nM
PRKCD, sequence (Q05655 whole entry): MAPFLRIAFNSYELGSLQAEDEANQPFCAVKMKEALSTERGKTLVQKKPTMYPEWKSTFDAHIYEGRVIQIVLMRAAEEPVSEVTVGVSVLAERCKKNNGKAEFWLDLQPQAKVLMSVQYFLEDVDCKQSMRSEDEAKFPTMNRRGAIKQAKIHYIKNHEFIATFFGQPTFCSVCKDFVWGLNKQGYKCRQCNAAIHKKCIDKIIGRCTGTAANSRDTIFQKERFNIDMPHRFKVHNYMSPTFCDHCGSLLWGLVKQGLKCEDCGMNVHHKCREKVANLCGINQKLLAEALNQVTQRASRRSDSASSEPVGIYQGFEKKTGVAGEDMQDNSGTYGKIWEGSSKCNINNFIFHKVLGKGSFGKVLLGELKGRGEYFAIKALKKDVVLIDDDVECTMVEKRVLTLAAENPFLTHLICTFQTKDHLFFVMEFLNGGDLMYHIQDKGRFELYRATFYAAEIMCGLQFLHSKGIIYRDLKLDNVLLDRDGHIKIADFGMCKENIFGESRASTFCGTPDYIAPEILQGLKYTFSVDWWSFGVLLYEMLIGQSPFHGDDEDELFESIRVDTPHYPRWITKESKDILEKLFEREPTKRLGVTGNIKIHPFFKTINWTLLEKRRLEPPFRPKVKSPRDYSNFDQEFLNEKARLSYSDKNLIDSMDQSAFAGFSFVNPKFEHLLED

[24] = biological target: PRKCE (Homo sapiens, UniProt Q02156); experiment: Kinase profiling; type: binding; conditions: read-out: % Ctrl @ 1000 nM
[25] = biological target: PRKD2 (Homo sapiens, UniProt Q9BZL6); experiment: Kinase profiling; type: binding; conditions: read-out: % Ctrl @ 1000 nM
PRKD2, sequence (Q9BZL6 whole entry): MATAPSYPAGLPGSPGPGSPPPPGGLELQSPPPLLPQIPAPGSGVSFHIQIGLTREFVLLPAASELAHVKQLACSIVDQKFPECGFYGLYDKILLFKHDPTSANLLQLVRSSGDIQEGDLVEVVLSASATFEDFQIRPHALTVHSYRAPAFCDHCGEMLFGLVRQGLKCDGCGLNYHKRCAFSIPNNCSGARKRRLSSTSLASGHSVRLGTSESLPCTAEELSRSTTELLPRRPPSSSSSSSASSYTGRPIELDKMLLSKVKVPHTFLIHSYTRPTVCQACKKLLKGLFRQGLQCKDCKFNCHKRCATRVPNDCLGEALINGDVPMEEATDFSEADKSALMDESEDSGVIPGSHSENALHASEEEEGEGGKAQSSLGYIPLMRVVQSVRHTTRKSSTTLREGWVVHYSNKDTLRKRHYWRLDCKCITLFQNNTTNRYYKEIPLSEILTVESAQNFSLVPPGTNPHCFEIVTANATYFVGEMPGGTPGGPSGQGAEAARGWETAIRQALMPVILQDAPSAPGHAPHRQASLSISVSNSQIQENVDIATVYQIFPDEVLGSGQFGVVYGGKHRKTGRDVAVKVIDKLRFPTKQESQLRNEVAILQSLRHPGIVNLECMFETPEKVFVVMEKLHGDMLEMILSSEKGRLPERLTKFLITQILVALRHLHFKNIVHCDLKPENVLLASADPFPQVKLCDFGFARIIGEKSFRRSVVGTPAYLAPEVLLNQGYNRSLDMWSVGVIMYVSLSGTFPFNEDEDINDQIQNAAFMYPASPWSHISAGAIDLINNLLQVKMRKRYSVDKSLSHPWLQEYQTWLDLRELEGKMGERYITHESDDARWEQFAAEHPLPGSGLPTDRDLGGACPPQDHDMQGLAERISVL

[26] = biological target: QSK (Homo sapiens, UniProt Q9Y2K2); experiment: Kinase profiling; type: binding; conditions: read-out: % Ctrl @ 1000 nM
[27] = biological target: RAF1 (Homo sapiens, UniProt P04049); experiment: Kinase profiling; type: binding; conditions: read-out: % Ctrl @ 1000 nM
[28] = biological target: RIOK3 (Homo sapiens, UniProt O14730); experiment: Kinase profiling; type: binding; conditions: read-out: % Ctrl @ 1000 nM
RIOK3, sequence (O14730 whole entry): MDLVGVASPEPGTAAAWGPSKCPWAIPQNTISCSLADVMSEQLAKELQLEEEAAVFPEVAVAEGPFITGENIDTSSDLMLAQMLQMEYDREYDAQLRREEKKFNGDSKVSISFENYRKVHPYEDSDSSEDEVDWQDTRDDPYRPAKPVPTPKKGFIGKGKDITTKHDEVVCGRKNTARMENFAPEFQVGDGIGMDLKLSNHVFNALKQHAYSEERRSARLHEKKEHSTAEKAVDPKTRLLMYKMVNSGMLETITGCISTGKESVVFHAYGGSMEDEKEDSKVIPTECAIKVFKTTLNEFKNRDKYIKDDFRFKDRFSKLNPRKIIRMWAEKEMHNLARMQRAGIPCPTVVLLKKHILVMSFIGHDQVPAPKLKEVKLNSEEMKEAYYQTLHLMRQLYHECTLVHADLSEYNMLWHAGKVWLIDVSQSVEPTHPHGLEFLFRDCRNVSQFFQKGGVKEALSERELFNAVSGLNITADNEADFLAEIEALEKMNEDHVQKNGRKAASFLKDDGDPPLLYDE

[29] = biological target: RSK4 (Kin.Dom.1-N-terminal) (Homo sapiens, UniProt Q9UK32); experiment: Kinase profiling; type: binding; conditions: read-out: % Ctrl @ 1000 nM
RSK4 (Kin.Dom.1-N-terminal), sequence (Q9UK32 73-330 limits assumed): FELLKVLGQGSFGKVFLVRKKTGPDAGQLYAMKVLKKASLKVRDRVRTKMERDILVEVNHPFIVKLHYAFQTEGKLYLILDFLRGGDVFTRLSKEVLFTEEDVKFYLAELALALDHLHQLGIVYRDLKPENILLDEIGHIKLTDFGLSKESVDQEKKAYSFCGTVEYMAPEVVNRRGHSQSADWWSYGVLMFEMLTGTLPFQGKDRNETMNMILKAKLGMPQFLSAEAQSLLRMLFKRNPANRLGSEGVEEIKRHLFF

[30] = biological target: TRKA (Homo sapiens, UniProt P04629); experiment: Kinase profiling; type: binding; conditions: read-out: % Ctrl @ 1000 nM
[31] = biological target: TTK (Homo sapiens, UniProt P33981); experiment: Kinase profiling; type: binding; conditions: read-out: % Ctrl @ 1000 nM
[32] = biological target: VRK2 (Homo sapiens, UniProt Q86Y07); experiment: Kinase profiling; type: binding; conditions: read-out: % Ctrl @ 1000 nM
[33] = biological target: WEE2 (Homo sapiens, UniProt P0C1S8); experiment: Kinase profiling; type: binding; conditions: read-out: % Ctrl @ 1000 nM
[34] = biological target: WNK2 (Homo sapiens, UniProt Q9Y3S1); experiment: Kinase profiling; type: binding; conditions: read-out: % Ctrl @ 1000 nM
[35] = tested on: M-NFS-60 cells; experiment: Proliferation of M-NFS-60 cells (CTG assay); type: cell-based, mouse; conditions: M-NFS-60 (CSF-1 dependent), 3 days
Protocol: Two syngeneic cell lines M-NFS-60 and RAW264.7 and engineered BaF3 hCSFIR cell line were starved and then tested with CBT-102 and other test articles for 3 days in the temperature of 37° C., 5% CO2 and 95% humidity. The cell viability was then detected using CTG assay. The software of GraphPad Prism was used to calculate IC50.
CSF-1 dependent mouse myeloid M-NFS-60 cells were employed as target cells while a CSF-1 independent cell line Raw 264.7 was used as a negative control. In addition to CBT-102, the study also included 3 CSF-1R inhibitors: GW2580, BLZ945 and Pexidartinib.

`Cc1cc(Oc2cc(NC(=O)C3CC3)ncn2)ccc1NC(=O)Nc1ccc(Cl)c(C(F)(F)F)c1` [CBT-102] showed a remaining activity at 1 µM [1] of 52%, a remaining activity at 1 µM [2] of 94% and a remaining activity at 1 µM [3] of 93%. For the same compound, the remaining activity at 1 µM [4] was 100%, the remaining activity at 1 µM [5] was 90% and the remaining activity at 1 µM [6] was 100%. It also gave a remaining activity at 1 µM [7] of 98%, a remaining activity at 1 µM [8] of 95% and a remaining activity at 1 µM [9] of 89%. The remaining activity at 1 µM [10] was 91%, the remaining activity at 1 µM [11] was 87% and the remaining activity at 1 µM [12] was 90%. It also gave a remaining activity at 1 µM [13] of 76%, a remaining activity at 1 µM [14] of 100% and a remaining activity at 1 µM [15] of 0%. For the same compound, the remaining activity at 1 µM [16] was 2.8%, the remaining activity at 1 µM [17] was 100% and the remaining activity at 1 µM [18] was 98%. The remaining activity at 1 µM [19] was 94%, the remaining activity at 1 µM [20] was 87% and the remaining activity at 1 µM [21] was 100%. For the same compound, the remaining activity at 1 µM [22] was 97%, the remaining activity at 1 µM [23] was 100% and the remaining activity at 1 µM [24] was 99%. For the same compound, the remaining activity at 1 µM [25] was 100%, the remaining activity at 1 µM [26] was 91% and the remaining activity at 1 µM [27] was 3.4%. It also gave a remaining activity at 1 µM [28] of 65%, a remaining activity at 1 µM [29] of 100% and a remaining activity at 1 µM [30] of 74%. For the same compound, the remaining activity at 1 µM [31] was 61%, the remaining activity at 1 µM [32] was 100% and the remaining activity at 1 µM [33] was 97%. The remaining activity at 1 µM [34] was 100%, the IC50 [35] was 343 nM and the IC50 ([35]; Mus musculus, 72 h) was 631 nM.
